Reference: patent publication US6646006B2, “Enhancement of vascular function by modulation of endogenous nitric oxide production or activity” (The Board of Trustees of the Leland Stanford Junior …, priority 1993, dated 2003)
Entries after “also recorded” stand apart in the source; their conditions may differ.

Columns and labels:
monocytes = test: Functional binding assay: rabbit blood mononuclear cells to bEnd3 endothelial cells; format: in vivo; conditions: Arg vs vehicle-treated Chol animals
Description: To determine if oral arginine supplementation affects monocyte adherence, blood was collected from rabbits fed normal chow (=6) a 1% cholesterol diet (=6), or a 1% cholesterol diet supplemented with L-arginine (=6), as described above. Mononuclear cells were purified from blood by Ficoll-paque density gradient centrifugation. In these preliminary studies, adhesion was examined of blood leukocytes to a transformed endothelial cell line, bEnd3 (mouse brain-derived polyoma middle T antigen transformed endothelial cells). The Bend3 cells display the morphology of endothelial cells, and like human endothelial cells are capable of uptake of acetylated low-density lipoprotein and express adhesion molecules in a cytokine-regulatable fashion. Cultured cells were grown to confluence in 0.5 cm^2 Lab-Tek chamber slides (MilesScientific) and treated with control medium or with LPS (1 mg/ml) or TNFα (25 U/ml) for 18 hours. Cultures were washed with fresh assay buffer, and low, medium, or high concentrations of leukocytes (0.75, 1.5, or 3×10^5 cells/ml, respectively) were added per well. Following a 30-minute incubation on a rocking platform at room temperature to allow binding, the slides were inverted and immersed in buffer containing 2% (v/v) glutaraldehyde, such that non-adherent cells were lost and adherent cells were fixed to the monolayer. […]

MCP-1 = test: Northern analysis of MCP-1 expression in thoracic aortae; format: in vivo, rabbit; conditions: two weeks; L-NA on normal chow, Arg on high cholesterol diet
Description: To investigate the role of endogenous NO in the regulation of MCP-1 in vivo, NZW rabbits were fed normal chow, normal chow plus nitro-L-arginine (L-NA) (to inhibit vascular NO synthesis), high cholesterol diet (Chol), or high cholesterol diet supplemented with L-arginine (Arg) (to enhance NO synthesis). After two weeks, thoracic aortae were harvested and total RNA was isolated. […] These studies indicate that the anti-atherogenic effect of NO may be mediated in part by its inhibition of MCP-1 expression. NO inhibits the generation of superoxide anion by the vascular cells and thereby turns off an oxidant-responsive transcriptional pathway (i.e. NFκB-mediated transcription) activating MCP-1 expression.

[1] = design: species or system human; conditions: in vivo, po
Experimental: (§1) The control subject population in this study included 12 normal volunteers, (10 males and 2 females), with an average age of 37±2 yrs. Normalcy was determined by a careful history, physical examination, and laboratory analysis to exclude individuals with hematologic, renal, or hepatic dysfunction or clinically evident atherosclerosis. There were 20 patients (10 males and 10 females) with hypercholesterolemia as defined by a total plasma cholesterol greater than 240 mg/dl and a LDL cholesterol level greater than 160 mg/dl. […] None of the subjects were taking diuretics, vasoactive medications, antiplatelet or hypolipidemic medications. This study was approved by the Stanford University Administrative Panel on Human Subjects in Medical Research and each subject gave written informed consent before entry into the study. Blood was drawn from each subject in the postabsorptive state.
Results. Oral administration of L-arginine ([…] for 2 weeks) to hypercholesterolemic humans increased plasma arginine values by 60% (from […]; n=7), whereas L-arginine values in the placebo-treated (n=3) and normocholesterolemic (n=6) groups remained unchanged.

human monocytes = test: Ex vivo binding of human monocytes to bEnd3 endothelial cells after oral L-arginine; format: in vivo
Experimental: as §1
We isolated human monocytes from citrated venous blood. The blood was centrifuged and the buffy coat removed and resuspended with HBSS. The suspension was then carefully layered onto a cushion of 1.068-d Histopaque, and centrifuged. After centrifugation, the monocytes were aspirated.
We used the transformed endothelial cell (EC) line, bEnd3 to examine monocyte-endothelial binding ex vivo. The bEnd3 cells express endothelial adhesion molecules and bind monocytes in a cytokine-inducible fashion with kinetics similar to those observed with human umbilical vein endothelium. Monocytes were added to the wells containing the endothelial monolayers to reach a final cell number of 3×10^6/ml. In some studies, monocytes were exposed in vitro for 30 minutes to sodium nitroprusside (an NO donor) prior to the binding assay.
The six-well plates were transferred to a rocking platform and rocked for 30 minutes at room temperature. After 30 minutes, the cell suspension was aspirated from each well and wells were then rinsed with binding buffer to remove nonadherent monocytes. Videomicroscopic counting of adherent cells was performed using a computer aided image analysis system.
To confirm this effect of L-arginine treatment and to control for any experimental bias, a double-blinded, placebo-controlled, randomized study was performed. Ten hypercholesterolemic subjects were randomized (1:2) to placebo or L-arginine treatment; 6 normocholesterolemic individuals were studied in parallel to control for variation over time in the binding assay. At baseline, the adhesion of monocytes from both hypercholesterolemic groups was increased in comparison to the normocholesterolemic individuals (p<0.001). After 2 weeks of L-arginine administration, there was an absolute reduction of 53% in monocyte binding (n=7, p<0.005, baseline vs 2 weeks) (FIG. 11). By contrast, there was no significant change in the adhesiveness of monocytes isolated from hypercholesterolemic individuals treated with placebo.

coronary arteries = test: Coronary response to intracoronary acetylcholine after intravenous L-arginine in cardiac transplant recipients; format: in vivo, human
Experimental: Cardiac transplant recipients scheduled for elective annual coronary angiography at Stanford University hospital were screened for possible participation in the study. The study protocol was approved by the Stanford University Committee on Human Subjects in Medical Research. All patients gave written informed consent. Eighteen patients who had cardiac transplantation 1 to 13 years previously were studied.
Vasoactive medications were discontinued at least 12 hours before the study. […] An infusion catheter was then advanced over a Doppler flow velocity guide wire into a nonbranching segment of the coronary artery for infusion of acetylcholine (which stimulates the endothelium to release NO). After baseline angiography was performed, increasing concentrations of acetylcholine were serially infused over 3 minutes. Infusion of acetylcholine continued until the maximum dose (10^−4 mol/L) was reached or until total coronary occlusion occurred. Then an intravenous infusion of L-arginine (30 g over 15 minutes) was performed. Thereafter, the intracoronary infusion of acetylcholine was repeated. Coronary angiography and Doppler flow velocity recording was performed at the end of the L-arginine infusion and after the infusion of each concentration of acetylcholine.

[2] = two weeks after discontinuation of L-arginine

## N=C(N)NCCC[C@H](N)C(=O)O [L-arginine]
monocytes
  adherence of monocytes to bEnd3 cells: much less adherent
MCP-1
  expression of MCP-1 in aortae: decreased
[1]; human, 2 weeks
  increase of plasma arginine values: 60%
  plasma arginine value after treatment: 128 ± 12 mM
[1]
  effect on biochemical or hematologic parameters: no effect
  tolerability: well tolerated
Human monocytes; after 2 weeks of arginine treatment
  adhesiveness of monocytes compared with normal subjects: no different from those of the normal subjects
Human monocytes; double-blinded placebo-controlled, baseline vs 2 weeks, n=7
  absolute reduction in monocyte binding: 53%
Human monocytes; open-label, 3 individuals, 2 weeks
  decrease in monocyte adhesiveness: 38%
Human monocytes; [2]
  increase in binding vs that after 2 weeks of L-arginine therapy: 30±9%
  increase in bound cells/hpf vs normocholesterolemic individuals: 34±9%
Coronary arteries; 30 g i.v. over 15 minutes
  complications or side-effects of the infusion: no complications or side-effects
Coronary arteries; acetylcholine 10^−4 mol/L, after L-arginine 30 g i.v. over 15 minutes
  Epicardial coronary vasoconstriction caused by acetylcholine: −2.8%
Coronary arteries; after L-arginine 30 g i.v.
  increase in coronary blood flow to acetylcholine: significantly enhanced; also recorded: improved
